Results reported in US20200207759A1, “NEW PROPANAMINE DERIVATIVES FOR TREATING PAIN AND PAIN RELATED CONDITIONS” (ESTEVE PHARMACEUTICALS, S.A., priority 2017, published 2020).
Structures can show the parent of a compound that is named as a salt.

What was measured:
[1] = target: Human norepinephrine transporter (NET) (Homo sapiens, UniProt P23975); experiment: Binding assay to human norepinephrine transporter (NET), [3H]-Nisoxetin; conditions: human NET enriched membranes, 5 nM [3H]-Nisoxetin; read-out: Ki (nM) NET Hum
Sequence of Human norepinephrine transporter (NET) (P23975 whole entry): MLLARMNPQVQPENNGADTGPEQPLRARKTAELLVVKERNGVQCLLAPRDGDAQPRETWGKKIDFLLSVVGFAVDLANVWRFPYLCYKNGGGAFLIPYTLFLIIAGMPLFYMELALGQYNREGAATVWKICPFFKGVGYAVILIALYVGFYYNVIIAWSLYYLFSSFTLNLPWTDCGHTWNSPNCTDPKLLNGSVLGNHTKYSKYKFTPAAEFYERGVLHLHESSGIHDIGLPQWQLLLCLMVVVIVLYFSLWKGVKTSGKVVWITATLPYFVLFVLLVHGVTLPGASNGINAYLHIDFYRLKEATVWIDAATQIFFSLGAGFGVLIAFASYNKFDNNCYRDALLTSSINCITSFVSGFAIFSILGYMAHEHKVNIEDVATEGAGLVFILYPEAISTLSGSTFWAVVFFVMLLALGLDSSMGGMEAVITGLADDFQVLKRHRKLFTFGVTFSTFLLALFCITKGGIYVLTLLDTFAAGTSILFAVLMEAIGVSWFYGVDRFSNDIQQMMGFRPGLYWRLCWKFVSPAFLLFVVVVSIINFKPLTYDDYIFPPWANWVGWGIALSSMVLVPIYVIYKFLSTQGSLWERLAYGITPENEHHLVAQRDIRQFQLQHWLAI
Protocol: Binding Assay to Human Norepinephrine Transporter (NET).
Human norepinephrine transporter (NET) enriched membranes (5 μg) were incubated with 5 nM of radiolabeled [3H]-Nisoxetin in assay buffer containing 50 mM Tris-HCl, 120 mM NaCl, 5 mM KCl, pH 7.4.
NSB (non specific binding) was measured by adding 1 μM. After 60 min incubation at 4° C., binding reaction was terminated by filtering through Multiscreen GF/C (Millipore) presoaked in 0.5% polyethyleneimine in Vacuum Manifold Station, followed by 3 washes with ice-cold filtration buffer containing 50 mM Tris-HCl, 0.9% NaCl, pH 7.4. Filter plates were dried at 60° C. for 1 hour and 30 μl of scintillation cocktail were added to each well before radioactivity reading.

[2] = target: Human α2δ-1 subunit of Cav2.2 calcium channel (Homo sapiens, UniProt P54289); experiment: Binding assay to human α2δ-1 subunit of Cav2.2 calcium channel, [3H]-Gabapentin; conditions: human α2δ-1 enriched membranes, 15 nM [3H]-Gabapentin; read-out: Ki (nM) alpha2delta Hum
Sequence of Human α2δ-1 subunit of Cav2.2 calcium channel (P54289 25-1103): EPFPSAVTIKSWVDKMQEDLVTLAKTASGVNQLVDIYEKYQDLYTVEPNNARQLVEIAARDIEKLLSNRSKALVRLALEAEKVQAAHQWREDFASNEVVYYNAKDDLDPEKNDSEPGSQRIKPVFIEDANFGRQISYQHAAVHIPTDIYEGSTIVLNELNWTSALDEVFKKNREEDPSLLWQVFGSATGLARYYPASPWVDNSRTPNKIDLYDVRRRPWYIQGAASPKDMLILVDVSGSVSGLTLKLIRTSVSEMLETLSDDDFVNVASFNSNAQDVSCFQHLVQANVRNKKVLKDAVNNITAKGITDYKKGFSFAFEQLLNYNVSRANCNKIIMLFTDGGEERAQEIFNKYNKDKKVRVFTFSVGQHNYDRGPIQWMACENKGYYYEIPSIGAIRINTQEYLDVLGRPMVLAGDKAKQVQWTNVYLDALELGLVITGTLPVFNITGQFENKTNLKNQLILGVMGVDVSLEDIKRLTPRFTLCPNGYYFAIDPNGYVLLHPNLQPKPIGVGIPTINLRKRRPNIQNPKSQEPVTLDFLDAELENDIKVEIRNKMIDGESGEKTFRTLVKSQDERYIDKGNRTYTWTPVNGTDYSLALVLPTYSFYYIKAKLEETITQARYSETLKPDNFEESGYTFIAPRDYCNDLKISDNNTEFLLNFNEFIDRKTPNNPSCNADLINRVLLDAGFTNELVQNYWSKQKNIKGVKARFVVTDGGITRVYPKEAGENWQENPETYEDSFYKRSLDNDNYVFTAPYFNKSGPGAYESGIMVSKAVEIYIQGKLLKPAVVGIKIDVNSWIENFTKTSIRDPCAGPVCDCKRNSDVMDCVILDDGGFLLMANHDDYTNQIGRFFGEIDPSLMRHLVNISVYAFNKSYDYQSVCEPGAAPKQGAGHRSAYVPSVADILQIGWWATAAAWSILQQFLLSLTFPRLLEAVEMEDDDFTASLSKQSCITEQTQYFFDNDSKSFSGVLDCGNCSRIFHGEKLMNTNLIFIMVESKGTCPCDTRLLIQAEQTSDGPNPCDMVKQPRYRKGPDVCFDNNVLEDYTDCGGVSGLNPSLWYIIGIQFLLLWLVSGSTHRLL
Protocol: Binding Assay to Human α2δ-1 Subunit of Cav2.2 Calcium Channel.
Human α2δ-1 enriched membranes (2.5 μg) were incubated with 15 nM of radiolabeled [3H]-Gabapentin in assay buffer containing Hepes-KOH 10 mM, pH 7.4.
NSB (non specific binding) was measured by adding 10 μM pregabalin. After 60 min incubation at 27° C., binding reaction was terminated by filtering through Multiscreen GF/C (Millipore) presoaked in 0.5% polyethyleneimine in Vacuum Manifold Station, followed by 3 washes with ice-cold filtration buffer containing 50 mM Tris-HCl, pH 7.4.
Filter plates were dried at 60° C. for 1 hour and 30 μl of scintillation cocktail were added to each well before radioactivity reading.
Readings were performed in a Trilux 1450 Microbeta radioactive counter (Perkin Elmer).

| SMILES | Ki [1] [nM] | Ki [2] [nM] |
| --- | --- | --- |
| CNCC[C@H](c1cccs1)N1CCc2ncc(OC)cc21 [Example 30, (R)-3-(6-Methoxy-2,3-dihydro-1H-pyrrolo[3,2-b]pyridin-1-yl)-N-methyl-3-(thiophen-2-yl)propan-1-amine] | > 1000 | 100 to 500 |
| CNCC[C@@H](c1cccs1)N1CC(C)(C)c2nc(OC)ccc21 [Example 113, (S)-3-(5-Methoxy-3,3-dimethyl-2,3-dihydro-1H-pyrrolo[3,2-b]pyridin-1-yl)-N-methyl-3-(thiophen-2-yl)propan-1-amine] | 500 to 1000 | 500 to 3000 |
| CCNCC[C@H](c1ccsc1)N1CCc2ncc(F)cc21 [Example 91, (R)-N-ethyl-3-(6-fluoro-2,3-dihydro-1H-pyrrolo[3,2-b]pyridin-1-yl)-3-(thiophen-3-yl)propan-1-amine] | > 1000 | 500 to 3000 |
| CNCCC(c1ccccc1)N1CCc2ncccc21 (stereo not drawn) [Example 7, 3-(2,3-Dihydro-1H-pyrrolo[3,2-b]pyridin-1-yl)-N-methyl-3-phenylpropan-1-amine] | 500 to 1000 | ≥ 3000 |
| CNCC[C@@H](c1cccs1)N1CCc2nc(C(C)C)ccc21 [Example 49, (S)-3-(5-Isopropyl-2,3-dihydro-1H-pyrrolo[3,2-b]pyridin-1-yl)-N-methyl-3-(thiophen-2-yl)propan-1-amine] | > 1000 | ≥ 3000 |
| CNCC[C@H](c1cccc(F)c1)N1CC(C)(C)c2ncccc21 [Example 85, (R)-3-(3,3-Dimethyl-2,3-dihydro-1H-pyrrolo[3,2-b]pyridin-1-yl)-3-(3-fluorophenyl)-N-methylpropan-1-amine] | > 1000 | ≥ 3000 |
| CNCC[C@@H](c1ccc(Cl)s1)N1CCc2ncccc21 [Example 40, (S)-3-(5-Chlorothiophen-2-yl)-3-(2,3-dihydro-1H-pyrrolo[3,2-b]pyridin-1-yl)-N-methylpropan-1-amine] | 500 to 1000 | 100 to 500 |
| CNCC[C@@H](c1cccs1)N1CCc2ncccc21 [Example 16, (S)-3-(2,3-Dihydro-1H-pyrrolo[3,2-b]pyridin-1-yl)-N-methyl-3-(thiophen-2-yl)propan-1-amine] | 100 to 500 | 100 to 500 |
| CCc1cnc2c(c1)N([C@H](CCNC)c1ccsc1)CC2 [Example 76, (R)-3-(6-Ethyl-2,3-dihydro-1H-pyrrolo[3,2-b]pyridin-1-yl)-N-methyl-3-(thiophen-3-yl)propan-1-amine] | 100 to 500 | 100 to 500 |
| CNCC[C@H](c1cccs1)N1CCc2ncccc21 [Example 17, (R)-3-(2,3-dihydro-1H-pyrrolo[3,2-b]pyridin-1-yl)-N-methyl-3-(thiophen-2-yl)propan-1-amine] | 100 to 500 | 500 to 3000 |
| CNCC[C@@H](c1ccsc1)N1CC(C)(C)c2ncc(C)cc21 [Example 61, (S)-N-methyl-3-(thiophen-3-yl)-3-(3,3,6-trimethyl-2,3-dihydro-1H-pyrrolo[3,2-b]pyridin-1-yl)propan-1-amine] | > 1000 | 500 to 3000 |
| CNCC[C@@H](c1sccc1Cl)N1CCc2ncccc21 [Example 37, (S)-3-(3-Chlorothiophen-2-yl)-3-(2,3-dihydro-1H-pyrrolo[3,2-b]pyridin-1-yl)-N-methylpropan-1-amine] | 100 to 500 | ≥ 3000 |
| CCNCCC(c1cccs1)N1CC(C)(C)c2ncc(C#N)cc21 (stereo not drawn) [Example 101, 1-(3-(Ethylamino)-1-(thiophen-2-yl)propyl)-3,3-dimethyl-2,3-dihydro-1H-pyrrolo[3,2-b]pyridine-6-carbonitrile] | – | < 100 |
| CNCC[C@H](c1ccsc1)N1CCc2ncccc21 [Example 22, (R)-3-(2,3-Dihydro-1H-pyrrolo[3,2-b]pyridin-1-yl)-N-methyl-3-(thiophen-3-yl)propan-1-amine] | > 1000 | 500 to 3000 |
| CNCCC(c1cccs1)N1CCc2cc(F)ccc21 (stereo not drawn) [Example 72, 3-(5-Fluoroindolin-1-yl)-N-methyl-3-(thiophen-2-yl)propan-1-amine] | 100 to 500 | ≥ 3000 |
| CNCCC(c1ccsc1)N1CC(C)(C)c2ncc(Cl)cc21 (racemic) [Example 80, 3-(6-Chloro-3,3-dimethyl-2,3-dihydro-1H-pyrrolo[3,2-b]pyridin-1-yl)-N-methyl-3-(thiophen-3-yl)propan-1-amine] | > 1000 | 100 to 500 |
| CNCC[C@H](c1cccs1)N1CC(C)(C)c2nc(OC)ccc21 [Example 114, (R)-3-(5-methoxy-3,3-dimethyl-2,3-dihydro-1H-pyrrolo[3,2-b]pyridin-1-yl)-N-methyl-3-(thiophen-2-yl)propan-1-amine] | > 1000 | 100 to 500 |

| SMILES | Ki [1] [nM] | Ki [2] [nM] |
| --- | --- | --- |
| CNCC[C@H](c1ccsc1)N1CC(C)(C)c2ncc(C)cc21 [Example 60, (R)-N-methyl-3-(thiophen-3-yl)-3-(3,3,6-trimethyl-2,3-dihydro-1H-pyrrolo[3,2-b]pyridin-1-yl)propan-1-amine] | > 1000 | 100 to 500 |
| CNCCC(c1ccsc1)N1CC(C)(C)c2nc(C#N)ccc21 (stereo not drawn) [Example 104, 3,3-Dimethyl-1-(3-(methylamino)-1-(thiophen-3-yl)propyl)-2,3-dihydro-1H-pyrrolo[3,2-b]pyridine-5-carbonitrile Hydrochloride] | > 1000 | 100 to 500 |
| CNCCC(c1ccc(F)s1)N1CCc2ncccc21 (stereo not drawn) [Example 6, 3-(2,3-Dihydro-1H-pyrrolo[3,2-b]pyridin-1-yl)-3-(5-fluorothiophen-2-yl)-N-methylpropan-1-amine] | 500 to 1000 | 500 to 3000 |
| CNCCC(c1cccs1)N1CC(C)(C)c2nc(C(F)(F)F)ccc21 (stereo not drawn) [Example 75, 3-(3,3-Dimethyl-5-(trif1uoromethyl)-2,3-dihydro-1H-pyrrolo[3,2-b]pyridin-1-yl)-N-methyl-3-(thiophen-2-yl)propan-1-amine] | > 1000 | 100 to 500 |
| CNCCC(c1cccs1)N1CC(C)(C)c2ncccc21 (stereo not drawn) [Example 12, 3-(3,3-Dimethyl-2,3-dihydro-1H-pyrrolo[3,2-b]pyridin-1-yl)-N-methyl-3-(thiophen-2-yl)propan-1-amine] | 500 to 1000 | 100 to 500 |
| CNCC[C@@H](c1nccs1)N1CCc2ncccc21 [Example 55, (S)-3-(2,3-Dihydro-1H-pyrrolo[3,2-b]pyridin-1-yl)-N-methyl-3-(thiazol-2-yl)propan-1-amine] | > 1000 | ≥ 3000 |
| CNCC[C@@H](c1cccc(F)c1)N1CC(C)(C)c2ncccc21 [Example 84, (S)-3-(3,3-Dimethyl-2,3-dihydro-1H-pyrrolo[3,2-b]pyridin-1-yl)-3-(3-fluorophenyl)-N-methylpropan-1-amine] | 100 to 500 | ≥ 3000 |
| CNCC[C@H](c1cccs1)N1c2ccccc2C[C@@H]1C [Example 118, (R)—N-methyl-3-((S)-2-methylindolin-1-yl)-3-(thiophen-2-yl)propan-1-amine] | > 1000 | ≥ 3000 |
| CNCCC(c1cccs1)N1CC(C)(C)c2ccccc21 (stereo not drawn) [Example 93, 3-(3,3-Dimethylindolin-1-yl)-N-methyl-3-(thiophen-2-yl)propan-1-amine] | < 100 | 500 to 3000 |
| CNCC[C@H](c1ccc(F)s1)N1CCc2ncccc21 [Example 18, (R)-3-(2,3-Dihydro-1H-pyrrolo[3,2-b]pyridin-1-yl)-3-(5-fluorothiophen-2-yl)-N-methylpropan-1-amine] | 500 to 1000 | 500 to 3000 |
| CNCC[C@@H](c1cccs1)N1CC(C)(C)c2ncc(F)cc21 [Example 105, (S)-3-(6-Fluoro-3,3-dimethyl-2,3-dihydro-1H-pyrrolo[3,2-b]pyridin-1-yl)-N-methyl-3-(thiophen-2-yl)propan-1-amine] | > 1000 | 500 to 3000 |
| CNCC[C@H](c1ccsc1)N1CCc2ncc(C3CC3)cc21 [Example 52, (R)-3-(6-Cyclopropyl-2,3-dihydro-1H-pyrrolo[3,2-b]pyridin-1-yl)-N-methyl-3-(thiophen-3-yl)propan-1-amine] | 500 to 1000 | < 100 |
| CNCCC(c1ccsc1)N1CCc2ncccc21 (stereo not drawn) [Example 10, 3-(2,3-Dihydro-1H-pyrrolo[3,2-b]pyridin-1-yl)-N-methyl-3-(thiophen-3-yl)propan-1-amine] | 100 to 500 | 100 to 500 |
| CNCC[C@H](c1cccs1)N1CC(C)(C)c2ncc(Cl)cc21 [Example 110, (R)-3-(6-chloro-3,3-dimethyl-2,3-dihydro-1H-pyrrolo[3,2-b]pyridin-1-yl)-N-methyl-3-(thiophen-2-yl)propan-1-amine] | > 1000 | 100 to 500 |
| CNCC[C@H](c1cccs1)N1CC(C)(C)c2ncc(C#N)cc21 [Example 116, (R)-3,3-dimethyl-1-(3-(methylamino)-1-(thiophen-2-yl)propyl)-2,3-dihydro-1H-pyrrolo[3,2-b]pyridine-6-carbonitrile] | – | 500 to 3000 |
| CNCC[C@@H](c1cccs1)N1CC(C)(C)c2ncc(C#N)cc21 [Example 115, (S)-3,3-Dimethyl-1-(3-(methylamino)-1-(thiophen-2-yl)propyl)-2,3-dihydro-1H-pyrrolo[3,2-b]pyridine-6-carbonitrile] | – | < 100 |
